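Compound exposure: 48 hours, 5 concentrations, 96-well plates. At the GI50, growth is halved. TGI: total growth inhibition.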
Experiments:
Assay in all cases: inhibition of tumour cell growth, NCI panel, 48 h
RPMI-8226 leukemia = system: RPMI-8226 leukemia
HOP-92 NSCLC = system: HOP-92 NSCLC
SF-268 CNS = system: SF-268 CNS
NCI-H522 lung = system: NCI-H522 lung
HCT-116 colon = system: HCT-116 colon
NCI-H226 lung = system: NCI-H226 lung
NCI-H460 lung = system: NCI-H460 lung
RXF 393 renal = system: RXF 393 renal
UACC-257 melanoma = system: UACC-257 melanoma
OVCAR-5 ovarian = system: OVCAR-5 ovarian

SMILES | GI50 (RPMI-8226 leukemia) | TGI (RPMI-8226 leukemia) | GI50 (HOP-92 NSCLC) | TGI (HOP-92 NSCLC) | GI50 (SF-268 CNS) | TGI (SF-268 CNS) | GI50 (NCI-H522 lung) | TGI (NCI-H522 lung) | GI50 (HCT-116 colon) | TGI (HCT-116 colon) | GI50 (NCI-H226 lung) | TGI (NCI-H226 lung) | GI50 (NCI-H460 lung) | TGI (NCI-H460 lung) | GI50 (RXF 393 renal) | TGI (RXF 393 renal) | GI50 (UACC-257 melanoma) | TGI (UACC-257 melanoma) | GI50 (OVCAR-5 ovarian) | TGI (OVCAR-5 ovarian)
CC(C)[O-].CC(C)[O-].O=C1C=C([O-])C(=O)c2ccccc21.O=C1C=C([O-])C(=O)c2ccccc21.[Ti+4] | 19.1 µM | > 100 µM | > 100 µM | > 100 µM | > 100 µM | > 100 µM | 39.9 µM | > 100 µM | 43.7 µM | > 100 µM | 63.9 µM | > 100 µM | 15.3 µM | > 100 µM | > 85.3 µM | > 100 µM | 4.97 µM | > 100 µM | > 100 µM | > 100 µM
CC1=C(C(=O)Nc2ccc(Cl)c(Cl)c2)C(c2cccc(Cl)c2)NC(=O)N1 (stereo not given) | > 17 µM | > 30.1 µM | 18.3 µM | > 28.7 µM | 7.85 µM | 17.4 µM | 9.53 µM | 18.5 µM | 12 µM | > 50 µM | 7.69 µM | 18.6 µM | 8.5 µM | 20.1 µM | 13.8 µM | 32.6 µM | 12.2 µM | 25.6 µM | 11.2 µM | 30.9 µM
COc1ccc(-c2cc(-c3ccc(Cl)cc3)nc(SCCCC(=O)NO)n2)cc1 | 0.771 µM | > 24.9 µM | 1.8 µM | 5.07 µM | 1.15 µM | 4.27 µM | 0.704 µM | 3.26 µM | 0.563 µM | > 100 µM | 1.49 µM | 6.89 µM | 0.495 µM | 3.9 µM | 0.359 µM | 1.52 µM | 2.31 µM | 10.4 µM | 1.37 µM | 6.92 µM
C[C@]12CCC(=O)C(O)=C1CC[C@@H]1C2CC[C@]2(C)NC(=O)CCC12 (stereo not given in full) |  | > 100 µM |  | > 100 µM |  | > 100 µM |  | > 100 µM |  | > 100 µM |  | > 100 µM |  | > 100 µM |  | > 100 µM |  | > 100 µM |  | > 100 µM
COc1ccc(C(=O)C(C(=O)CC(=O)Nc2cccc(C(F)(F)F)c2)c2ccc(OC)cc2)cc1 (stereo not given) |  | > 100 µM |  | > 100 µM |  | > 100 µM |  | > 100 µM |  | > 100 µM |  | > 100 µM |  | > 100 µM |  | > 100 µM |  | > 100 µM |  | > 100 µM
COc1ccc(NC([Se])=NC23CC4CC(CC(C4)C2)C3)cc1 | 0.845 µM | 3.8 µM | 2.34 µM | 14.2 µM | 3.55 µM | > 100 µM | 1.23 µM | 4.35 µM | 1.28 µM | 2.78 µM | 1.25 µM | 5.26 µM | 1.98 µM | 10.7 µM | 1.8 µM | 4.72 µM | 2.03 µM | 5.44 µM | 1.7 µM | 4.68 µM
O=C1C=CC(=O)C12CCc1ccccc12 |  | 45.8 µM |  | > 100 µM |  | > 100 µM |  | 33.2 µM |  | > 100 µM |  | > 100 µM |  | > 100 µM |  | > 100 µM |  | > 100 µM |  | > 100 µM

From PubChem BioAssay (NCI)
